Assays:
Test in all cases: normalised viability (% of control), CellTiter-Blue; higher = more viable cells (about 100 = DMSO control)
Conditions in all cases: incubation time: 72 h
BT-474 = tested on: BT-474
In short: (§1)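 Each value is normalised viability at a single listed concentration of the series. Breast cancer cell lines in 384-well plates were incubated 72 h with compound and read by CellTiter-Blue fluorescence at 560/590 nm, with vehicle set to 100 and a positive kill control to 0 on every plate.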

BT-549 = tested on: BT-549
In short: as §1

CAL-120 = tested on: CAL-120
In short: as §1

CAL-148 = tested on: CAL-148
In short: as §1

CAL-51 = tested on: CAL-51
In short: as §1

CAL-85-1 = tested on: CAL-85-1
In short: as §1

DU-4475 = tested on: DU-4475
In short: as §1

HCC1143 = tested on: HCC1143
In short: as §1

HCC1599 = tested on: HCC1599
In short: as §1

HCC1937 = tested on: HCC1937
In short: as §1

HDQ-P1 = tested on: HDQ-P1
In short: as §1

Hs578T = tested on: Hs578T
In short: as §1

MDA-MB-453 = tested on: MDA-MB-453
In short: as §1

MDA-MB-468 = tested on: MDA-MB-468
In short: as §1

SK-BR-3 = tested on: SK-BR-3
In short: as §1

N[C@@H](CSC(c1ccccc1)(c1ccccc1)c1ccccc1)C(=O)O [S-trityl-L-cysteine]
normalised viability [%]
Conditions	12 nM	40 nM	120 nM	400 nM	4000 nM	40000 nM
BT-474	–	111	–	–	94	25.9
BT-549	–	83.3	–	–	92.2	24
CAL-51	87	–	90.5	87	–	–
CAL-85-1	105	–	106	101	–	–
CAL-120	–	110	–	–	42.4	35.2
CAL-148	112	–	114	114	–	–
DU-4475	117	–	92.9	102	–	–
HCC1143	–	134	–	–	113	58.6
HCC1599	–	94.9	–	–	99.3	102
HCC1937	–	98.7	–	–	24.8	22.6
HDQ-P1	94.4	–	92.5	110	–	–
Hs578T	–	114	–	–	36.6	16.8
MDA-MB-453	91.7	–	80.9	101	–	–
MDA-MB-468	–	102	–	–	34.5	34.6
SK-BR-3	–	112	–	–	18.3	20.1

CC(C)Cn1cnc2c(N)nc3ccccc3c21 [Imiquimod]
normalised viability [%]
Conditions	3 nM	10 nM	30 nM	100 nM	1000 nM	10000 nM
BT-474	–	104	–	–	115	102
BT-549	–	94.5	–	–	103	78.7
CAL-51	103	–	97.9	98.1	–	–
CAL-85-1	100	–	90.6	105	–	–
CAL-120	–	97.9	–	–	97.2	105
CAL-148	93.1	–	102	98.5	–	–
DU-4475	97	–	101	99	–	–
HCC1143	–	96.5	–	–	99.9	94.1
HCC1599	–	102	–	–	100	109
HCC1937	–	86.2	–	–	82.5	88.5
HDQ-P1	91.7	–	92	96.6	–	–
Hs578T	–	105	–	–	105	84.9
MDA-MB-453	94.6	–	105	107	–	–
MDA-MB-468	–	102	–	–	103	107
SK-BR-3	–	85	–	–	91.2	115

N.N.[Cl][Pt][Cl] [Cisplatin]
normalised viability [%]
Conditions	3 nM	10 nM	30 nM	100 nM	1000 nM	10000 nM
BT-474	–	115	–	–	122	135
BT-549	–	87.5	–	–	87.6	88.8
CAL-51	107	–	97.9	109	–	–
CAL-85-1	96.2	–	87.7	95.7	–	–
CAL-120	–	90.3	–	–	93.3	102
CAL-148	92.1	–	102	103	–	–
DU-4475	105	–	116	88.8	–	–
HCC1143	–	88.2	–	–	89.3	89.2
HCC1599	–	100	–	–	93.4	86.7
HCC1937	–	87	–	–	106	105
HDQ-P1	116	–	118	111	–	–
Hs578T	–	100	–	–	139	122
MDA-MB-453	124	–	117	110	–	–
MDA-MB-468	–	101	–	–	101	106
SK-BR-3	–	99.1	–	–	105	111

Cn1c(CCCC(=O)O)nc2cc(N(CCCl)CCCl)ccc21 [Bendamustine]
normalised viability [%]
Conditions	3 nM	10 nM	30 nM	100 nM	1000 nM	10000 nM
BT-474	–	127	–	–	120	105
BT-549	–	107	–	–	101	101
CAL-51	111	–	105	111	–	–
CAL-85-1	91.2	–	94.8	100	–	–
CAL-120	–	89.5	–	–	86.7	93.4
CAL-148	99.8	–	112	106	–	–
DU-4475	90	–	102	101	–	–
HCC1143	–	107	–	–	104	97.8
HCC1599	–	115	–	–	105	114
HCC1937	–	55.3	–	–	85.7	93.7
HDQ-P1	105	–	119	109	–	–
Hs578T	–	110	–	–	127	97.7
MDA-MB-453	125	–	108	106	–	–
MDA-MB-468	–	107	–	–	95	82.3
SK-BR-3	–	108	–	–	109	85

C#Cc1cccc(Nc2ncnc3cc(OCCOC)c(OCCOC)cc23)c1 [Erlotinib]
normalised viability [%]
Conditions	3 nM	10 nM	30 nM	100 nM	1000 nM	10000 nM
BT-474	–	98.5	–	–	90.1	51
BT-549	–	117	–	–	106	66.9
CAL-51	102	–	96.1	98.8	–	–
CAL-85-1	93.7	–	82.8	88	–	–
CAL-120	–	91.4	–	–	95.1	50.1
CAL-148	89.7	–	102	98.2	–	–
DU-4475	107	–	90.7	86.7	–	–
HCC1143	–	105	–	–	90.7	68.8
HCC1599	–	91	–	–	74.5	54.8
HCC1937	–	95	–	–	80.2	63.6
HDQ-P1	108	–	94	85	–	–
Hs578T	–	123	–	–	120	69
MDA-MB-453	109	–	99.2	98	–	–
MDA-MB-468	–	108	–	–	75.2	43.6
SK-BR-3	–	91	–	–	91.2	27.6

Cc1ccc(-n2nc(C(C)(C)C)cc2NC(=O)Nc2ccc(OCCN3CCOCC3)c3ccccc23)cc1 [Doramapimod]
normalised viability [%]
Conditions	3 nM	10 nM	30 nM	100 nM	1000 nM	10000 nM
BT-474	–	101	–	–	101	96.9
BT-549	–	98.1	–	–	104	84.7
CAL-51	116	–	105	95.7	–	–
CAL-85-1	94.4	–	85.4	80.4	–	–
CAL-120	–	95.4	–	–	81.2	95.8
CAL-148	90	–	90.9	87.5	–	–
DU-4475	123	–	89.1	97.1	–	–
HCC1143	–	94.2	–	–	92.1	90.3
HCC1599	–	93.8	–	–	110	91.2
HCC1937	–	45.3	–	–	90.2	97.9
HDQ-P1	88.8	–	78	82.4	–	–
Hs578T	–	111	–	–	120	113
MDA-MB-453	109	–	105	106	–	–
MDA-MB-468	–	96	–	–	115	119
SK-BR-3	–	91.1	–	–	98.2	97.1

Cc1ccc(C(=O)N(CCCN)[C@@H](c2oc3cc(Cl)ccc3c(=O)c2Cc2ccccc2)C(C)C)cc1
normalised viability [%]
Conditions	0.3 nM	1 nM	3 nM	10 nM	100 nM	1000 nM
BT-474	–	117	–	–	27.5	28.7
BT-549	–	87.3	–	–	25.1	34.8
CAL-51	106	–	101	38.6	–	–
CAL-85-1	92.9	–	90.1	33	–	–
CAL-120	–	53	–	–	27.8	26.7
CAL-148	93	–	106	16.1	–	–
DU-4475	91.4	–	108	52.9	–	–
HCC1143	–	83.7	–	–	43.2	37.5
HCC1599	–	97.2	–	–	94.1	81.7
HCC1937	–	51.2	–	–	26.6	22.3
HDQ-P1	128	–	75.8	59.1	–	–
Hs578T	–	102	–	–	13.6	13.6
MDA-MB-453	123	–	103	23.8	–	–
MDA-MB-468	–	88.4	–	–	26.5	36.3
SK-BR-3	–	45	–	–	20.8	18.2

O=P1(NCCCl)OCCCN1CCCl (stereo not given) [Ifosfamide]
normalised viability [%]
Conditions	3 nM	10 nM	30 nM	100 nM	1000 nM	10000 nM
BT-474	–	114	–	–	112	120
BT-549	–	79.4	–	–	90.8	96.7
CAL-51	114	–	110	107	–	–
CAL-85-1	88.3	–	89.1	95.7	–	–
CAL-120	–	88.7	–	–	99.3	85.2
CAL-148	89.8	–	92	93	–	–
DU-4475	88.5	–	101	81.9	–	–
HCC1143	–	80.1	–	–	82.4	91.1
HCC1599	–	100	–	–	93.9	89.7
HCC1937	–	84	–	–	74.6	97.6
HDQ-P1	94	–	93.9	103	–	–
Hs578T	–	102	–	–	102	115
MDA-MB-453	132	–	87.3	106	–	–
MDA-MB-468	–	110	–	–	120	103
SK-BR-3	–	109	–	–	117	97.8

CO[C@H]1/C=C\C=C(/C)C(=O)NC2=CC(=O)C(NCCN(C)C)=C(C[C@@H](C)C[C@H](OC)[C@H](O)[C@@H](C)/C=C(\C)[C@@H]1OC(N)=O)C2=O [Alvespimycin]
normalised viability [%]
Conditions	0.3 nM	1 nM	3 nM	10 nM	100 nM	1000 nM
BT-474	–	116	–	–	28.3	27.8
BT-549	–	104	–	–	33.5	21.2
CAL-51	97	–	96	86.8	–	–
CAL-85-1	111	–	85.5	95.1	–	–
CAL-120	–	108	–	–	26.7	17.4
CAL-148	107	–	102	101	–	–
DU-4475	99	–	93.1	84.5	–	–
HCC1143	–	103	–	–	46.8	37.7
HCC1599	–	72.9	–	–	43	31.3
HCC1937	–	110	–	–	40.7	29
HDQ-P1	99.3	–	102	112	–	–
Hs578T	–	102	–	–	43.6	40.1
MDA-MB-453	115	–	87.4	61.7	–	–
MDA-MB-468	–	111	–	–	44.6	29.3
SK-BR-3	–	97.7	–	–	19	16.3

COc1cc([C@@H]2c3cc4c(cc3[C@@H](O[C@@H]3O[C@@H]5CO[C@@H](C)O[C@H]5[C@H](O)[C@H]3O)[C@H]3COC(=O)[C@H]23)OCO4)cc(OC)c1O [Etoposide]
normalised viability [%]
Conditions	3 nM	10 nM	30 nM	100 nM	1000 nM	10000 nM
BT-474	–	116	–	–	96.4	87.3
BT-549	–	84.9	–	–	56	46.7
CAL-51	98.6	–	85.8	77.3	–	–
CAL-85-1	99.9	–	93.9	102	–	–
CAL-120	–	92.5	–	–	73.6	59.1
CAL-148	88.6	–	81	85.7	–	–
DU-4475	108	–	72.3	61.3	–	–
HCC1143	–	85.7	–	–	66.6	47.3
HCC1599	–	99.1	–	–	94	72.3
HCC1937	–	78.5	–	–	64.9	38.9
HDQ-P1	90.8	–	91	33.6	–	–
Hs578T	–	94.6	–	–	77.1	52.4
MDA-MB-453	109	–	107	99.8	–	–
MDA-MB-468	–	107	–	–	73	35.9
SK-BR-3	–	98.2	–	–	46.5	12.9

CN(N=O)C(=O)N[C@@H](C=O)[C@@H](O)[C@H](O)[C@H](O)CO [Streptozocin]
normalised viability [%]
Conditions	3 nM	10 nM	30 nM	100 nM	1000 nM	10000 nM
BT-474	–	125	–	–	98.6	135
BT-549	–	93	–	–	103	83.7
CAL-51	115	–	112	107	–	–
CAL-85-1	95.7	–	92.1	95.4	–	–
CAL-120	–	106	–	–	101	113
CAL-148	98.6	–	97.3	99.3	–	–
DU-4475	101	–	96.5	103	–	–
HCC1143	–	87.5	–	–	97.4	92.5
HCC1599	–	104	–	–	85.9	113
HCC1937	–	87.4	–	–	63.3	75.9
HDQ-P1	103	–	109	111	–	–
Hs578T	–	110	–	–	103	101
MDA-MB-453	116	–	89.4	93	–	–
MDA-MB-468	–	107	–	–	105	113
SK-BR-3	–	101	–	–	110	126

Source: the supplement of paper PMC4862054
